Patent US6048872A, “Arylethanolamine derivatives and their use as agonists of atypical beta-adrenoceptors” (Glaxo Wellcome Inc., priority 1995, dated 2000)
Counter-ions that a name gives are not always drawn.

Legend:
[1] = biological target: T1, human beta-3-adrenoceptor (Homo sapiens, UniProt P13945); experiment: cAMP accumulation in CHO cells transfected with the human beta-3-adrenoceptor (Method 1), potency relative to isoprenaline; assay type: cell-based; details: relative potency of test agonist compared to isoprenaline (EC50 ratio), H β3 CHO cells
T1 construct: whole-cell cAMP accumulation, potency relative to isoprenaline
T1 sequence (P13945 whole entry): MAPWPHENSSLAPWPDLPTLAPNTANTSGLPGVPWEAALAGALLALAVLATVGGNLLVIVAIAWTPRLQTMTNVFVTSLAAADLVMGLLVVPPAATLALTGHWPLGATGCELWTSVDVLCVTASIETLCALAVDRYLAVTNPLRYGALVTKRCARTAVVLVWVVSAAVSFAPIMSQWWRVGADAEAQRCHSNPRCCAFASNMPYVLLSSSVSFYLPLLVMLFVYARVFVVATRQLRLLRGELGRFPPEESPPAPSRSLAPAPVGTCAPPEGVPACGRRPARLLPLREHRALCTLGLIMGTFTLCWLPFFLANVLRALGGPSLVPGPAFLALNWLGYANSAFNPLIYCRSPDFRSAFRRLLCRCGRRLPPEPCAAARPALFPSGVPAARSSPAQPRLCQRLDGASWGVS
Procedure: […] The cell lines may also be transfected with human beta-1- and beta-2- adrenoceptor in a similar manner to provide a method of determining the selectivity of the compounds of the invention at the three receptors.
General cell culture guidelines are observed (Fershney, R. A. (1987) Culture of animal cells: A manual of basic technique. Wiley-Liss, Inc., N.Y.). A standard cell culture incubator is used (37° C., 5% CO2 in air, 95% relative humidity). H β3 CHO cells are grown in 75 ml flasks in MEMα medium containing 9% FCS & 125 μg/ml G418. One confluent flask of cells is trypsinised and resuspended in 80 ml of culture medium; 1 ml of the cell suspension is added to each well of three 24-well plates. The plates are then incubated for 1 day.
The medium is aspirated from each well, and the well rinsed with phosphate-buffered saline (PBS, this is then aspirated). 1 ml of MEMα (no FCS or G418, 300μ M IBMX) is added to each well. Antagonists, if required, are added at this stage. The plate is then placed back in the incubator for 30 min. Drugs are then added to the wells (10 μl, 100x required final concentration), the plate gently swirled to mix the drugs, and the plate placed back in the incubator for 30 min. The medium is then aspirated from each well, the well rinsed with PBS, and 0.5 ml perchloric acid (6% v/v in distilled water, 2-5° C.). The plate is left on ice for 30 min. The perchloric acid (containing cAMP) is transferred to a clean 24-well plate and the acid neutralised by addition of saturated KHCO3 solution (200 μl) to each well. The plate is then swirled and frozen (-20° C.) until cAMP is assayed. cAMP is assayed using an enzyme-immunoassay kit (Amersham).
The relative potency of each test agonist (EPMR) is compared to isoprenaline as follows: [formula] wherein EC50 is the molar concentration of agonist which produces 50% of the maximum possible response for that agonist.

[2] = tested on: indomethacin-induced antral damage; experiment: Protective effect on indomethacin-induced gastric antral lesions in the re-fed rat (Method 2); assay type: in vivo; details: po, rats dosed orally 30 minutes before indomethacin 60 mg/kg s.c., antral damage assessed at 6 hours post dose
Procedure: […] The procedure is based upon that described by H. Satoh et. al., Gastroenterology, 81, 719-725 (1981) in which the effect of compounds on indomethacin-induced gastric antral lesions in the re-fed rat is investigated. Indomethacin is an example of the class of compound known as non-steroidal anti-inflammatory drugs (NSAIDs), the use of which is frequently associated with gastrointestinal ulcers.
Food (but not water) is withheld from female random hooded rats (70-120 g) for 24 hours and then the rats are re-fed with Rat and Mouse No. 1 Maintenance Diet. After 1 hour of access to food, the rats are dosed orally with either the test compound or solvent (0.5% w/v methyl cellulose in water). […]
The rat's stomach is removed (with a small amount of duodenum attached), opened along the greater curvature and the contents removed by washing with 0.9% w/v sodium chloride solution (saline). The opened stomach is pinned out (mucosal surface uppermost) on a polystyrene mat and the area of damage assessed by placing a grid (composed of 1 mm squares) over the antral region. […] The total area of antral damage is then expressed as a percentage of the total surface area of the antrum.
The protective effect of the test compound on indomethacin-induced antral damage is calculated as a percentage using the following equation: [formula]

| EPMR [1] | Structure (SMILES) | ED50 [2] [µg/kg] |
| --- | --- | --- |
| 0.4 | COc1cc(NC[C@@H](C)NC[C@H](O)c2cccc(Cl)c2)c(Cl)cc1CC(=O)O [Example 8, (5-Chloro-4-{2R-[2-(3-chloro-phenyl)-2R-hydroxy-ethylaminol-propylamino}-2-methoxy-phenyl)-acetic acid dihydrochloride] | – |
| 0.2 | C[C@H](CNc1ccc(CC(=O)O)c(F)c1F)NC[C@H](O)c1cccc(Cl)c1 [Example 7, (4-{2R-[2-(3-Chloro-phenyl)-2R-hydroxyl-ethylamino]-propylamino}-2,3-difluoro-phenyl)-acetic acid] | 3 |
| 6.0 | C[C@H](CNc1cc(F)c(OCC(=O)O)c(F)c1)NC[C@H](O)c1cccc(Cl)c1 [Example 15, (4-{2R-[2-(3-Chloro-phenyl)-2R-hydroxy-ethylamino]-propylamino}-2,6-difluoro-phenoxy)-acetic acid] | – |
